According to patent publication US20230218255A1, “IMAGING OF MYELOMA BONE LESIONS” (Blue Earth Diagnostics Limited, priority 2022, published 2023):

Test system: myeloma bone lesion
Test: [^18F]-FACBC PET and fused PET/CT imaging of the lumbar vertebrae
Assay type: in vivo
Conditions: coronal PET and PET/CT of lumbar vertebrae; PET acquisition started 5 minutes after administration of 319 MBq
Procedure: In an exemplary method, lesion [^18F]-FACBC uptake is visually compared to [^18F]-FACBC activity in the bone marrow. [^18F]-FACBC uptake higher than the bone marrow is considered as suspicious for myeloma. [^18F]-FACBC uptake similar or less than the bone marrow is considered as non-suspicious for myeloma.
FIG. 1: Coronal [^18F]-FACBC PET (left) and fused PET/CT (right) images of the lumbar vertebrae. […] The PET scan acquisition was started 5 minutes after administration of 319 MBq of [^18F]-FACBC.
In an aspect of the present disclosure, there is provided a method of diagnosing myeloma bone lesions in a subject comprising the steps of: • (a) administering a detectable amount of [^18F]-FACBC to the subject; • (b) acquiring one or more positron emission tomography (PET) scan images of the subject for a region of the subject that includes a potential myeloma bone lesion; and • (c) comparing [^18F]-FACBC uptake in the potential lesion against [^18F]-FACBC uptake in the bone marrow of the region of the subject; wherein lesion [^18F]-FACBC uptake which is higher than bone marrow [^18F]-FACBC uptake is indicative of the presence of myeloma bone lesions.

N[C@]1(C(=O)O)C[C@@H](F)C1 [[^18F]-FACBC, anti-1-amino-3-^18F-fluorocyclobutane-1-carboxylic acid]
[^18F]-FACBC uptake in area diagnosed as a lesion compared with surrounding bone marrow: higher than the surrounding bone marrow
